Experimental findings from PMC12245108 (Advanced Science, 2025) are described below.

Broadly, the inhibition is how much of the control response was suppressed. In general, EC50 refers to the concentration at which the effect is half-maximal. The term IC50 denotes the concentration needed to halve the response being measured. A high value points to weaker potency in that assay.

One data set concerns the target MPXV I7L protease (Monkeypox virus, UniProt Q8V512). In words: biochemical. As to conditions: for inhibition at 100 µM: pH 7.5, read-out: inhibition rate.
In a further data set the test system is Vaccinia virus. The data set can be described thus: microbe, parasite or virus in culture. It counts as cell-based. Conditions: Orthopoxvirus vaccinia, HeLa, 24 h, read-out: EC50 for vaccinia virus replication inhibition.
Another data set is described as follows: in vitro. As to conditions: human.

Where a SMILES comes first, the peptide text is derived from it. The star is where a group is joined. NHCH2CN = N#CCN*

Consider `CC(C)(C)NC(=O)N[C@H](C(=O)N1C[C@H]2[C@@H]([C@H]1C(=O)NC(CC1CCC1)C(=O)C(N)=O)C2(C)C)C(C)(C)C` (stereo partly shown) [Boceprevir, reference compound], for which, at MPXV I7L protease, the inhibition at 100 µM is below 50%.

Turning to `CCCCCCCCCCCCCCCCOCCCOP(=O)(O)CO[C@H](CO)Cn1ccc(N)nc1=O` [Brincidofovir, reference compound], in the data set on Vaccinia virus, the EC50 was 900 nM.

With `Cn1cnc(Cn2c(=O)[nH]/c(=N\c3cc4cn(C)nc4cc3Cl)n(Cc3cc(F)c(F)cc3F)c2=O)n1` [Ensitrelvir, reference compound], the inhibition at 100 µM at MPXV I7L protease was below 50%.

In the case of `CC(C)C[C@H](NC(=O)OCc1ccccc1)C(=O)N[C@@H](C[C@@H]1CCNC1=O)C(O)S(=O)(=O)[O-].[Na+]` (stereo partly shown) [GC376, reference compound], on MPXV I7L protease (pH 7.5), the inhibition rate result is recorded as “below 50%”.

Turning to `Cc1cccc(C)c1OCC(=O)N[C@@H](Cc1ccccc1)[C@@H](O)C[C@H](Cc1ccccc1)NC(=O)[C@H](C(C)C)N1CCCNC1=O` [Lopinavir, reference compound], the inhibition at 100 µM at MPXV I7L protease was below 50%.

Turning to `CCCC[C@H](NC(=O)[C@@H]1[C@@H]2[C@H](CN1C(=O)[C@@H](NC(=O)NC1(CS(=O)(=O)C(C)(C)C)CCCCC1)C(C)(C)C)C2(C)C)C(=O)C(=O)NC1CC1` [Narlaprevir, reference compound], the inhibition at 100 µM at MPXV I7L protease was below 50%.

Turning to `CC(C)(C)[C@H](NC(=O)C(F)(F)F)C(=O)N1C[C@H]2[C@@H]([C@H]1C(=O)N[C@H](C#N)C[C@@H]1CCNC1=O)C2(C)C` [Nirmatrelvir, reference compound], the inhibition at 100 µM at MPXV I7L protease was below 50%.

In the case of `CC(C)c1nc(CN(C)C(=O)N[C@H](C(=O)N[C@@H](Cc2ccccc2)C[C@H](O)[C@H](Cc2ccccc2)NC(=O)OCc2cncs2)C(C)C)cs1` [Ritonavir, reference compound], the inhibition at 100 µM at MPXV I7L protease was below 50%.

With `CCC[C@H](NC(=O)[C@@H]1[C@H]2CCC[C@H]2CN1C(=O)[C@@H](NC(=O)[C@@H](NC(=O)c1cnccn1)C1CCCCC1)C(C)(C)C)C(=O)C(=O)NC1CC1` [Telaprevir, reference compound], the inhibition at 100 µM at MPXV I7L protease was below 50%.

`CC[C@H](C)[C@H](NC(C)=O)C(=O)N[C@@H](Cc1ccccc1)C(=O)N[C@@H](Cc1ccccc1)C(=O)N[C@@H](C)C(=O)NCC#N` [compound 1, (2S,3S)-2-acetamido-N-((S)-1-(((S)-1-(((S)-1-((cyanomethyl)amino)-1-oxopropan-2-yl)amino)-1-oxo-3-phenylpropan-2-yl)amino)-1-oxo-3-phenylpropan-2-yl)-3-methylpentanamide] (Ac-IFFA-NHCH2CN) yielded an IC50 against MPXV I7L protease of 171 nM.

On MPXV I7L protease, `CC[C@H](C)[C@H](NC(=O)[C@@H](NC(=O)[C@H](CCSC)NC(C)=O)C(C)C)C(=O)N[C@@H](C)C(=O)NCC#N` [compound 2, (2S,3S)-2-((S)-2-((S)-2-acetamido-4-(methylthio)butanamido)-3-methylbutanamido)-N-((S)-1-((cyanomethyl)amino)-1-oxopropan-2-yl)-3-methylpentanamide] (Ac-MVIA-NHCH2CN) returned an IC50 of 132 nM.

Take `CC(=O)N[C@@H](Cc1ccc(O)cc1)C(=O)N[C@@H](Cc1ccccc1)C(=O)N[C@@H](Cc1ccc(O)cc1)C(=O)N[C@@H](C)C(=O)NCC#N` [compound 3, (S)-2-acetamido-N-((S)-1-(((S)-1-(((S)-1-((cyanomethyl)amino)-1-oxopropan-2-yl)amino)-3-(4-hydroxyphenyl)-1-oxopropan-2-yl)amino)-1-oxo-3-phenylpropan-2-yl)-3-(4-hydroxyphenyl)propanamide] (Ac-YFYA-NHCH2CN): half-maximal inhibition against MPXV I7L protease (IC50) was put at 79 ± 15 nM.

In turn, `CC[C@H](C)[C@H](NC(C)=O)C(=O)N[C@H](C(=O)N[C@@H](CC(N)=O)C(=O)N[C@@H](C)C(=O)NCC#N)[C@@H](C)O` [compound 4, (S)-2-((2S,3R)-2-((2S,3S)-2-acetamido-3-methylpentanamido)-3-hydroxybutanamido)-N^1-((S)-1-((cyanomethyl)amino)-1-oxopropan-2-yl)succinamide] (Ac-ITNA-NHCH2CN) gave an IC50 on MPXV I7L protease of 1620 nM.

At MPXV I7L protease, `CC(=O)N[C@@H](CC(=O)O)C(=O)N[C@@H](Cc1ccccc1)C(=O)N[C@@H](CO)C(=O)N[C@@H](C)C(=O)NCC#N` [compound 6, (4S,7S,10S,13S)-13-acetamido-10-benzyl-1-cyano-7-(hydroxymethyl)-4-methyl-3,6,9,12-tetraoxo-2,5,8,11-tetraazapentadecan-15-oic acid] (Ac-DFSA-NHCH2CN) returned an IC50 of 74 ± 29 nM.

In the case of `CC[C@H](C)[C@H](NC(=O)[C@H](Cc1ccc(O)cc1)NC(=O)[C@@H]1CCCN1C(C)=O)C(=O)N[C@@H](C)C(=O)NCC#N` [compound 7, (S)-1-acetyl-N-((S)-1-(((2S,3S)-1-(((S)-1-((cyanomethyl)amino)-1-oxopropan-2-yl)amino)-3-methyl-1-oxopentan-2-yl)amino)-3-(4-hydroxyphenyl)-1-oxopropan-2-yl)pyrrolidine-2-carboxamide] (Ac-PYIA-NHCH2CN), the IC50 against MPXV I7L protease was found to be 241 ± 29 nM.

At MPXV I7L protease, `CC[C@H](C)[C@H](NC(C)=O)C(=O)N[C@@H](Cc1ccccc1)C(=O)N[C@@H](CC(N)=O)C(=O)N[C@@H](C)C(=O)NCC#N` [compound 8, (S)-2-((S)-2-((2S,3S)-2-acetamido-3-methylpentanamido)-3-phenylpropanamido)-N^1-((S)-1-((cyanomethyl)amino)-1-oxopropan-2-yl)succinamide] (Ac-IFNA-NHCH2CN) displayed an IC50 of 71 nM.

`CC[C@H](C)[C@H](NC(=O)[C@@H](NC(C)=O)C(C)C)C(=O)N[C@@H](C)C(=O)NCC#N` [compound 9, (2S,3S)-2-((S)-2-acetamido-3-methylbutanamido)-N-((S)-1-((cyanomethyl)amino)-1-oxopropan-2-yl)-3-methylpentanamide] yielded an IC50 against MPXV I7L protease of 400 nM.

As for `CC[C@H](C)[C@H](NC(=O)Cc1ccccc1)C(=O)N[C@@H](C)C(=O)NCC#N` [compound 10, (2S,3S)-N-((S)-1-((cyanomethyl)amino)-1-oxopropan-2-yl)-3-methyl-2-(2-phenylacetamido)pentanamide], the CC50 in the data set “in vitro” is above 400000 nM. The IC50 against MPXV I7L protease is 122 nM. In the data set with HeLa cells, the cytotoxicity result was “no detectable cytotoxicity”. Moreover, in the data set with Vaccinia virus, the EC50 was 6300 nM.

Take `CC[C@H](C)[C@H](NC(=O)[C@@H](C)c1ccccc1)C(=O)N[C@@H](C)C(=O)NCC#N` [compound 11, (2S,3S)-N-((S)-1-((cyanomethyl)amino)-1-oxopropan-2-yl)-3-methyl-2-((S)-2-phenylpropanamido)pentanamide]: the CC50 in the data set “in vitro” was above 400000 nM. In addition, on MPXV I7L protease, the IC50 was found to be 69 nM. Besides, the cytotoxicity result in the data set with HeLa cells is “no detectable cytotoxicity”. In addition, the EC50 in the data set on Vaccinia virus worked out at 6000 nM.
